Like-named read-outs stand apart in the source and are kept apart here.
Tests used:
MCL1 = MCL1 (Homo sapiens, UniProt Q07820); assay: MCL1 affinity assay (competition binding, qPCR readout); details: recombinant MCL1, 11-point 3-fold dilution series
Method in brief: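 Competition binding: DNA-tagged recombinant protein (E. coli BL21-derived or HEK-293), biotinylated peptide ligand-loaded streptavidin beads and compound incubated 1 hour at room temperature, 0.9% DMSO final. Bound protein eluted with 0.5 μM non-biotinylated ligand and quantified by qPCR; Kd from 11-point 3-fold dilution series.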

BCL2 = BCL2 (Homo sapiens, UniProt P10415); assay: BCL2 affinity assay (competition binding, qPCR readout); details: recombinant BCL2, 11-point 3-fold dilution series
Chain of BCL2 (P10415 whole entry): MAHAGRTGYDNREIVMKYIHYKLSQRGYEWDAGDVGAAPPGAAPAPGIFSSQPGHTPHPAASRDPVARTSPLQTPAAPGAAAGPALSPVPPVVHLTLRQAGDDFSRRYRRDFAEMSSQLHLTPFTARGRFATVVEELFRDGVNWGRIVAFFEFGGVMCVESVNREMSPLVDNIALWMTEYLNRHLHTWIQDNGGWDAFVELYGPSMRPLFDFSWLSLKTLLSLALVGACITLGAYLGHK
Experimental: (§1) Recombinant MCL1, BCL2 and BCXL proteins were prepared in either an E. coli host derived from the BL21 strain or in HEK-293 cells. The recombinant proteins were subsequently tagged with DNA for qPCR detection. Streptavidin-coated magnetic beads were treated for 30 minutes at room temperature with the respective biotinylated peptide ligands for each recombinant protein to generate affinity resins for the assays. The liganded beads were blocked with excess biotin and washed with blocking buffer (SeaBlock (Pierce), 1% BSA, 0.05% Tween 20, 1 mM DTT) to remove unbound ligand and to reduce nonspecific binding. Binding reactions were assembled by combining recombinant protein, liganded affinity beads, and test compounds in 1× binding buffer (20% SeaBlock, 0.17×PBS, 0.05% Tween 20, 6 mM DTT). Test compounds were prepared as 111X stocks in 100% DMSO. The compounds were then diluted directly into the assays such that the final concentration of DMSO was 0.9%. The assay plates were incubated at room temperature with shaking for 1 hour and the affinity beads were washed with wash buffer (1×PBS, 0.05% Tween 20). The beads were then re-suspended in elution buffer (1×PBS, 0.05% Tween 20, 0.5 μM non-biotinylated affinity ligand) and incubated at room temperature with shaking for 30 minutes. The recombinant protein concentration in the eluates was measured by qPCR. Kds were determined using an 11-point 3-fold compound dilution series with three DMSO control points.

BCLXL = BCLXL (Homo sapiens, UniProt Q07817); assay: BCLXL affinity assay (competition binding, qPCR readout); details: recombinant BCLXL, 11-point 3-fold dilution series
Chain of BCLXL (Q07817 whole entry): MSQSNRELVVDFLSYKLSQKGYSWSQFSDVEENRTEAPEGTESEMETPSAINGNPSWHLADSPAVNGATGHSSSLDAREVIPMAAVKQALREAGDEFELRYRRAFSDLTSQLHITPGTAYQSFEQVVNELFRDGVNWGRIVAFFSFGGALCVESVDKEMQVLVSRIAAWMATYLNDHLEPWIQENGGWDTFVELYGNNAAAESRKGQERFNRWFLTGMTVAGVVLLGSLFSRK
Experimental: as §1

[1] = tested on: drug-sensitive cell lines of Table 3; assay: Cell line growth retardation assay, sensitive cohort; type: cell-based, Human; details: for IC50: arithmetic mean of IC50s over the sensitive cohort of Table 3, 6 days growth, read-out: AvgSen IC50; for Fold Diff: average IC50 of resistant cohort divided by average IC50 of sensitive cohort
Method in brief: (§2)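 Cell lines classed as MCL1-inhibition sensitive or resistant were seeded, rested 24 h, then exposed to 10–0.0032 μM compound for 6 days. Cells were counted by imaging; growth inhibition was the ratio of population doublings with vs without compound from a pre-treatment baseline. IC50 from curve fits, averaged per cohort.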

[2] = tested on: drug-resistant cell lines of Table 3; assay: Cell line growth retardation assay, resistant cohort; type: cell-based, Human; details: arithmetic mean of IC50s over the resistant cohort of Table 3, 6 days growth, read-out: AvgRes IC50
Method in brief: as §2

Chain of MCL1 (Q07820 whole entry): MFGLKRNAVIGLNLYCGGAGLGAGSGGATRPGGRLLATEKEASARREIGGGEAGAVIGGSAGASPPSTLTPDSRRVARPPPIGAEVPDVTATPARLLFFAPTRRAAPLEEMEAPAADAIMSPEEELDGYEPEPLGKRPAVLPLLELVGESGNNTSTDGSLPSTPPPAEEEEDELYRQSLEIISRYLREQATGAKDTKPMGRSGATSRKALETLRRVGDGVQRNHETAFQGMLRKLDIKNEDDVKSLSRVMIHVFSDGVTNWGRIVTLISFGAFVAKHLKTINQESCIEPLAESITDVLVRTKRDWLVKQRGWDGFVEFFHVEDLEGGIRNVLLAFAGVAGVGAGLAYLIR

## Cc1c(-c2c(-c3cccc4[nH]c(C(F)(F)F)cc34)ncc3snc(O[C@H](Cc4ccccc4OCc4ccnn4CC(F)(F)F)C(=O)O)c23)ccc(OCCN2CCN(C)CC2)c1Cl (atropisomer, axis not shown) [Compound 16]
MCL1
  Kd: > 1500 nM
BCL2
  Kd: > 1500 nM
BCLXL
  Kd: > 1500 nM
[1]; Homo sapiens, 144 h
  IC50: > 5000 nM
[1]
  Fold Diff: − (“−” represents a fold difference less than 10)
[2]; Homo sapiens, 144 h
  IC50: > 5000 nM

## Cc1c(-c2c(-c3ccc(F)s3)ncc3snc(O[C@H](Cc4ccccc4OCc4ccnn4CC(F)(F)F)C(=O)O)c23)ccc(OCCN2CCN(C)CC2)c1Cl (single isomer, unassigned) [Compound 1]
MCL1
  Kd: > 1500 nM
BCL2
  Kd: > 1500 nM
BCLXL
  Kd: > 1500 nM
[1]
  IC50: > 5000 nM
  Fold Diff: − (“−” represents a fold difference less than 10)
[2]; Homo sapiens, 144 h
  IC50: > 5000 nM

## COCCOc1ccc(-c2c(-c3cccc(OC)c3)ncc3snc(O[C@H](Cc4ccccc4OCc4ccnc(-c5ccccc5OC)n4)C(=O)O)c23)c(C)c1Cl (atropisomer, axis not shown) [Compound 44]
MCL1
  Kd: ≤ 100 nM
BCL2
  Kd: > 1500 nM
BCLXL
  Kd: > 1500 nM
[1]; Homo sapiens, 144 h
  IC50: > 5000 nM
[1]
  Fold Diff: − (“−” represents a fold difference less than 10)
[2]; Homo sapiens, 144 h
  IC50: > 5000 nM

## COc1cccc(-c2ncc3snc(O[C@H](Cc4ccccc4OCc4ccnn4CC(F)(F)F)C(=O)O)c3c2-c2ccc(OCCN3CCN(C)CC3)c(Cl)c2C)c1 (atropisomer, axis not shown) [Compound 23]
MCL1
  Kd: 101 to 500 nM
BCL2
  Kd: > 1500 nM
BCLXL
  Kd: > 1500 nM
[1]; Homo sapiens, 144 h
  IC50: ≤ 1000 nM
[1]
  Fold Diff: + (“+” represents a fold difference of 10 or more)
[2]; Homo sapiens, 144 h
  IC50: > 5000 nM

## Cc1c(-c2c(-c3cccc4ccccc34)ncc3snc(O[C@H](Cc4ccccc4OCc4ccnn4CC(F)(F)F)C(=O)O)c23)ccc(OCCN2CCN(C)CC2)c1Cl (atropisomer, axis not shown) [Compound 7]
MCL1
  Kd: > 1500 nM
BCL2
  Kd: > 1500 nM
BCLXL
  Kd: > 1500 nM
[1]; Homo sapiens, 144 h
  IC50: > 5000 nM
[1]
  Fold Diff: − (“−” represents a fold difference less than 10)
[2]; Homo sapiens, 144 h
  IC50: > 5000 nM

## Cc1c(-c2c(-c3cccc(F)c3)ncc3snc(O[C@H](Cc4ccccc4OCc4ccnc(-c5ccncc5)n4)C(=O)O)c23)ccc(OCCN2CCN(C)CC2)c1Cl (atropisomer, axis not shown) [Compound 72]
MCL1
  Kd: ≤ 100 nM
BCL2
  Kd: > 1500 nM
BCLXL
  Kd: > 1500 nM
[1]; Homo sapiens, 144 h
  IC50: ≤ 1000 nM
[1]
  Fold Diff: + (“+” represents a fold difference of 10 or more)
[2]; Homo sapiens, 144 h
  IC50: > 5000 nM

## Cc1c(-c2c(-c3csc4ccccc34)ncc3snc(O[C@H](Cc4ccccc4OCc4ccnn4CC(F)(F)F)C(=O)O)c23)ccc(OCCN2CCN(C)CC2)c1Cl (atropisomer, axis not shown) [Compound 19]
MCL1
  Kd: > 1500 nM
BCL2
  Kd: > 1500 nM
BCLXL
  Kd: > 1500 nM
[1]; Homo sapiens, 144 h
  IC50: 1000 to 5000 nM
[1]
  Fold Diff: − (“−” represents a fold difference less than 10)
[2]; Homo sapiens, 144 h
  IC50: > 5000 nM

## Cc1c(-c2c(-c3cccc4c3NC(=O)C4)ncc3snc(O[C@H](Cc4ccccc4OCc4ccnn4CC(F)(F)F)C(=O)O)c23)ccc(OCCN2CCN(C)CC2)c1Cl (atropisomer, axis not shown) [Compound 12]
MCL1
  Kd: > 1500 nM
BCL2
  Kd: > 1500 nM
BCLXL
  Kd: > 1500 nM
[1]; Homo sapiens, 144 h
  IC50: > 5000 nM
[1]
  Fold Diff: − (“−” represents a fold difference less than 10)
[2]; Homo sapiens, 144 h
  IC50: > 5000 nM

## Cc1c(-c2c(-c3ccsc3)ncc3snc(O[C@H](Cc4ccccc4OCc4ccnn4CC(F)(F)F)C(=O)O)c23)ccc(OCCN2CCN(C)CC2)c1Cl (atropisomer, axis not shown) [Compound 27]
MCL1
  Kd: 101 to 500 nM
BCL2
  Kd: > 1500 nM
BCLXL
  Kd: > 1500 nM
[1]; Homo sapiens, 144 h
  IC50: 1000 to 5000 nM
[1]
  Fold Diff: − (“−” represents a fold difference less than 10)
[2]; Homo sapiens, 144 h
  IC50: > 5000 nM

## Cc1c(-c2c(-c3ccccn3)ncc3snc(O[C@H](Cc4ccccc4OCc4ccnn4CC(F)(F)F)C(=O)O)c23)ccc(OCCN2CCN(C)CC2)c1Cl (atropisomer, axis not shown) [Compound 52]
MCL1
  Kd: 501 to 1500 nM
BCL2
  Kd: > 1500 nM
BCLXL
  Kd: > 1500 nM
[1]; Homo sapiens, 144 h
  IC50: > 5000 nM
[1]
  Fold Diff: − (“−” represents a fold difference less than 10)
[2]; Homo sapiens, 144 h
  IC50: > 5000 nM

## Cc1c(-c2c(-c3cccc4ccsc34)ncc3snc(O[C@H](Cc4ccccc4OCc4ccnn4CC(F)(F)F)C(=O)O)c23)ccc(OCCN2CCN(C)CC2)c1Cl (atropisomer, axis not shown) [Compound 24]
MCL1
  Kd: > 1500 nM
BCL2
  Kd: > 1500 nM
BCLXL
  Kd: > 1500 nM
[1]; Homo sapiens, 144 h
  IC50: 1000 to 5000 nM
[1]
  Fold Diff: − (“−” represents a fold difference less than 10)
[2]; Homo sapiens, 144 h
  IC50: > 5000 nM

## COc1cccc(-c2ncc3snc(O[C@H](Cc4ccccc4OCc4ccnc(-c5ccccc5OC)n4)C(=O)O)c3c2-c2ccc(OCCN3CCOCC3)c(Cl)c2C)c1 (single isomer, unassigned) [Compound 42]
MCL1
  Kd: ≤ 100 nM
BCL2
  Kd: > 1500 nM
BCLXL
  Kd: > 1500 nM
[1]; Homo sapiens, 144 h
  IC50: 1000 to 5000 nM
[1]
  Fold Diff: − (“−” represents a fold difference less than 10)
[2]; Homo sapiens, 144 h
  IC50: > 5000 nM

## Cc1c(-c2c(-c3ccc(F)s3)ncc3snc(O[C@H](Cc4ccccc4OCc4ccnn4CC(F)(F)F)C(=O)O)c23)ccc(OCCN2CCN(C)CC2)c1Cl (single isomer, unassigned) [Compound 2]
MCL1
  Kd: 501 to 1500 nM
BCL2
  Kd: > 1500 nM
BCLXL
  Kd: > 1500 nM
[1]
  IC50: 1000 to 5000 nM
  Fold Diff: − (“−” represents a fold difference less than 10)
[2]
  IC50: > 5000 nM

## COc1cccc(-c2ncc3snc(O[C@H](Cc4ccccc4OCc4ccnc(-c5ccccc5OC)n4)C(=O)O)c3c2-c2ccc(OCCN3CCCC3)c(Cl)c2C)c1 (atropisomer, axis not shown) [Compound 50]
MCL1
  Kd: ≤ 100 nM
BCL2
  Kd: > 1500 nM
BCLXL
  Kd: > 1500 nM
[1]; Homo sapiens, 144 h
  IC50: ≤ 1000 nM
[1]
  Fold Diff: + (“+” represents a fold difference of 10 or more)
[2]; Homo sapiens, 144 h
  IC50: > 5000 nM

## COc1cccc(-c2ncc3snc(O[C@H](Cc4ccccc4OCc4ccnc(-c5ccccc5OC)n4)C(=O)O)c3c2-c2ccc(OC)c(Cl)c2C)c1 (atropisomer, axis not shown) [Compound 51]
MCL1
  Kd: ≤ 100 nM
BCL2
  Kd: > 1500 nM
BCLXL
  Kd: > 1500 nM
[1]; Homo sapiens, 144 h
  IC50: 1000 to 5000 nM
[1]
  Fold Diff: − (“−” represents a fold difference less than 10)
[2]; Homo sapiens, 144 h
  IC50: > 5000 nM

## Cc1c(-c2c(-c3ccc(F)c4ccoc34)ncc3snc(O[C@H](Cc4ccccc4OCc4ccnn4CC(F)(F)F)C(=O)O)c23)ccc(OCCN2CCN(C)CC2)c1Cl (atropisomer, axis not shown) [Compound 14]
MCL1
  Kd: 101 to 500 nM
BCL2
  Kd: > 1500 nM
BCLXL
  Kd: > 1500 nM
[1]; Homo sapiens, 144 h
  IC50: 1000 to 5000 nM
[1]
  Fold Diff: − (“−” represents a fold difference less than 10)
[2]; Homo sapiens, 144 h
  IC50: > 5000 nM

## COc1cccc(-c2ncc3snc(O[C@H](Cc4ccccc4OCc4ccnc(-c5ccccc5OC)n4)C(=O)O)c3c2-c2ccc(OCCN(C)C)c(Cl)c2C)c1 (atropisomer, axis not shown) [Compound 46]
MCL1
  Kd: ≤ 100 nM
BCL2
  Kd: > 1500 nM
BCLXL
  Kd: > 1500 nM
[1]; Homo sapiens, 144 h
  IC50: ≤ 1000 nM
[1]
  Fold Diff: + (“+” represents a fold difference of 10 or more)
[2]; Homo sapiens, 144 h
  IC50: > 5000 nM

## Cc1c(-c2c(-c3cccc4c3sc3ccccc34)ncc3snc(O[C@H](Cc4ccccc4OCc4ccnn4CC(F)(F)F)C(=O)O)c23)ccc(OCCN2CCN(C)CC2)c1Cl (atropisomer, axis not shown) [Compound 9]
MCL1
  Kd: > 1500 nM
BCL2
  Kd: > 1500 nM
BCLXL
  Kd: > 1500 nM
[1]; Homo sapiens, 144 h
  IC50: > 5000 nM
[1]
  Fold Diff: − (“−” represents a fold difference less than 10)
[2]; Homo sapiens, 144 h
  IC50: > 5000 nM

## Cc1c(-c2c(Cl)ncc3snc(O[C@H](Cc4ccccc4OCc4ccnn4CC(F)(F)F)C(=O)O)c23)ccc(OCCN2CCN(C)CC2)c1Cl (single isomer, unassigned) [Compound 4]
MCL1
  Kd: 501 to 1500 nM
BCL2
  Kd: > 1500 nM
BCLXL
  Kd: > 1500 nM
[1]
  IC50: > 5000 nM
  Fold Diff: − (“−” represents a fold difference less than 10)
[2]
  IC50: > 5000 nM

## Cc1c(-c2c(-c3cccc4cc[nH]c34)ncc3snc(O[C@H](Cc4ccccc4OCc4ccnn4CC(F)(F)F)C(=O)O)c23)ccc(OCCN2CCN(C)CC2)c1Cl (atropisomer, axis not shown) [Compound 18]
MCL1
  Kd: > 1500 nM
BCL2
  Kd: > 1500 nM
BCLXL
  Kd: > 1500 nM
[1]; Homo sapiens, 144 h
  IC50: > 5000 nM
[1]
  Fold Diff: − (“−” represents a fold difference less than 10)
[2]; Homo sapiens, 144 h
  IC50: > 5000 nM

— patent US20230116602A1, “MCL1 INHIBITORS AND USES THEREOF” (California Institute of Technology, priority 2019, published 2023)
